Test results from patent US7803801B2, “Aminopyridine compounds having Syk inhibitory activity” (Japan Tobacco, Inc., priority 2005, dated 2010).
Structures can show the parent of a compound that is named as a salt. Where two headings read alike, the source gives them in different places.

Tests used:
[1] = test system: cultured human mast cells; test: Degranulation inhibition test using cultured human mast cells (IgE cross-linking, β-Hexosaminidase release); format: cell-based; details: Mast cell, cultured human mast cells, read-out: human degranulation ave. IC50
Method in brief: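 Degranulation was triggered by anti-hIgE (10 μg/mL final, 30 min, 37 °C) after a 10-min compound pretreatment (DMSO 0.1%) of cord-blood CD34+-derived mast cells primed 5 days with IL-4 and IgE. β-Hexosaminidase in supernatant was measured with p-nitrophenyl-GlcNAc substrate (A405), expressed against water-lysed total; IC50 (M).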

[2] = target: GST-Syk Full Protein (human) (Homo sapiens, UniProt P43405); test: Syk kinase inhibition test (HTRF method); format: biochemical
Method in brief: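 HTRF read-out: after EDTA termination and 1 h with XL665-streptavidin and Eu-anti-phosphotyrosine, the 665/620 nm ratio was measured. The reaction ran 30 min at 20–25 °C with final 6.4 nM human GST-Syk, 250 nM biotinylated peptide, 100 μM ATP, pH 7.0 HEPES buffer, 2% DMSO.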

[3] = anti-hIgE stimulation, β-Hexosaminidase index, average
[4] = HTRF, 100 μM ATP, 30 min room temperature, average, read-out: sykHTRF ave IC50
[5] = Tables 1-x, compounds A, read-out: sykHTRF ave IC50
[6] = Tables 2-x, thiophene compounds B
[7] = Tables 2-x, thiophene compounds B, read-out: sykHTRK ave IC50

Row | IC50 [1, 3] | IC50 [2, 4] | SMILES | further results
1 | 0.1 to 1 µM | 0.1 to 1 µM | COc1ccnc(Nc2cccc(-c3cnc([C@H]4CC[C@H](C(=O)N5CCC(O)CC5)CC4)s3)n2)c1 [Compound A-291] | –
2 | – | – | Cc1ccnc(Nc2cccc(-c3cnc(N4CCC(C)(C(=O)O)CC4)s3)n2)c1 [Compound A-540, 4-methyl-1-{5-[6-(4-methylpyridin-2-ylamino)pyridin-2-yl]thiazol-2-yl}piperidine-4-carboxylic acid] | IC50 ([1]; Tables 1-x, compounds A): 0.1 to 1 µM; IC50 [2, 5]: < 0.1 µM
3 | – | – | CC(=O)Nc1cc(C)c(-c2cccc(Nc3cc(C)ccn3)n2)s1 [Compound B-8] | IC50 [1, 6]: > 1 µM; IC50 [2, 7]: 0.1 to 1 µM
4 | 0.1 to 1 µM | < 0.1 µM | CON(C)C(=O)c1ncc(-c2cccc(Nc3cc(C)ccn3)n2)s1 [Compound A-46, N-methoxy-N-methyl-5-[6-(4-methylpyridin-2-ylamino)pyridin-2-yl]thiazole-2-carboxamide] | –
5 | 0.1 to 1 µM | 0.1 to 1 µM | Cc1ccnc(Nc2cccc(-c3cnc(CN(C)C(=O)C4CC4)s3)n2)c1 [Compound A-358] | –
6 | – | – | Cc1ccnc(Nc2cccc(-c3cnc(C4CCN(S(=O)(=O)C(C)C)CC4)s3)n2)c1 [Compound A-398] | IC50 ([1]; Tables 1-x, compounds A): > 1 µM; IC50 [2, 5]: 0.1 to 1 µM
7 | – | – | Cc1ccnc(Nc2cccc(-c3ccc(C(=O)N4CCOCC4)s3)n2)c1 [Compound B-81] | IC50 [1, 6]: 0.1 to 1 µM; IC50 [2, 7]: 0.1 to 1 µM
8 | 0.1 to 1 µM | < 0.1 µM | Cc1ccnc(Nc2cccc(-c3cnc(CCCCCO)s3)n2)c1 [Compound A-70, 5-{5-[6-(4-methylpyridin-2-ylamino)pyridin-2-yl]thiazol-2-yl}pentan-1-ol] | –
9 | 0.1 to 1 µM | < 0.1 µM | CC(=O)c1ncc(-c2cccc(Nc3cc(C)ccn3)n2)s1 [Compound A-27, 1-{5-[6-(4-methylpyridin-2-ylamino)pyridin-2-yl]thiazol-2-yl}ethanone] | –
10 | – | – | O=C(O)CC1CCN(c2ncc(-c3cccc(Nc4cc(Cl)ccn4)n3)s2)CC1 [Compound A-620, (1-{5-[6-(4-chloropyridin-2-ylamino)pyridin-2-yl]thiazol-2-yl}piperidin-4-yl)acetic acid dihydrochloride] | IC50 ([1]; Tables 1-x, compounds A): 0.1 to 1 µM; IC50 [2, 5]: < 0.1 µM
11 | – | – | Cc1ccnc(Nc2cccc(-c3cnc(N(C)Cc4ccc(O)cc4)s3)n2)c1 [Compound A-471, 4-[(N-methyl-N-{5-[6-(4-methylpyridin-2-ylamino)pyridin-2-yl]thiazol-2-yl}amino)methyl]phenol] | IC50 ([1]; Tables 1-x, compounds A): 0.1 to 1 µM; IC50 [2, 5]: < 0.1 µM
12 | > 1 µM | 0.1 to 1 µM | CC(=O)N(CCC(=O)O)Cc1ncc(-c2cccc(Nc3cc(C)ccn3)n2)s1 [Compound A-181] | –
13 | > 1 µM | 0.1 to 1 µM | CC(=O)NC(C)(C)c1ncc(-c2cccc(Nc3cc(C)ccn3)n2)s1 [Compound A-114] | –
14 | > 1 µM | > 1 µM | CC(=O)N[C@@H](Cc1ccc(NC(=O)OCc2ccccc2)cc1)c1ncc(-c2cccc(Nc3cc(C)ccn3)n2)s1 [Compound A-178] | –
15 | > 1 µM | < 0.1 µM | Cc1ccnc(Nc2cccc(-c3cnc([C@H]4CC[C@H](C(=O)O)CC4)s3)n2)c1 [Compound A-7, trans-4-{5-[6-(4-methylpyridin-2-ylamino)pyridin-2-yl]thiazol-2-yl}cyclohexanecarboxylic acid] | –
16 | 0.1 to 1 µM | < 0.1 µM | C[C@H](O)c1ncc(-c2cccc(Nc3cc(C4(C)OCCO4)ccn3)n2)s1 [Compound A-335, (S)-1-(5-{6-[4-(2-methyl-[1,3]dioxolan-2-yl)pyridin-2-ylamino]pyridin-2-yl}thiazol-2-yl)ethanol] | –
17 | – | – | Cc1ccnc(Nc2cccc(-c3cnc(N(C)C4CCNCC4)s3)n2)c1 [Compound A-452, N-methyl-N-{5-[6-(4-methylpyridin-2-ylamino)pyridin-2-yl]thiazol-2-yl}-N-piperidin-4-ylamine] | IC50 ([1]; Tables 1-x, compounds A): > 1 µM; IC50 [2, 5]: < 0.1 µM
18 | – | – | CC(=O)N[C@H]1CN(C(=O)COCc2ncc(-c3cccc(Nc4cc(C)ccn4)n3)s2)C[C@@H]1O [Compound A-411] | IC50 ([1]; Tables 1-x, compounds A): > 1 µM; IC50 [2, 5]: > 1 µM
19 | > 1 µM | 0.1 to 1 µM | Cc1ccnc(Nc2cccc(-c3cnc(CN4CCN(CCO)CC4)s3)n2)c1 [Compound A-217] | –
20 | 0.1 to 1 µM | 0.1 to 1 µM | Cc1ccnc(Nc2cccc(-c3cnc(C4CCN(C(=O)N5CCC(O)CC5)CC4)s3)n2)c1 [Compound A-251] | –
21 | – | – | Cc1ccnc(Nc2cccc(-c3cnc(N4CCCC(COCC(=O)O)C4)s3)n2)c1 (stereo not shown) [Compound A-497, (1-{5-[6-(4-methylpyridin-2-ylamino)pyridin-2-yl]thiazol-2-yl}piperidin-3-ylmethoxy)acetic acid dihydrochloride] | IC50 ([1]; Tables 1-x, compounds A): > 1 µM; IC50 [2, 5]: < 0.1 µM
22 | – | – | Cc1ccnc(Nc2cccc(-c3cnc(N4CCN(C)CC4)s3)n2)c1 [Compound A-432, N-{6-[2-(4-methylpiperazin-1-yl)thiazol-5-yl]pyridin-2-yl}-N-(4-methylpyridin-2-yl)amine] | IC50 ([1]; Tables 1-x, compounds A): 0.1 to 1 µM; IC50 [2, 5]: < 0.1 µM

Row | IC50 [1, 3] | IC50 [2, 4] | SMILES | further results
23 | > 1 µM | 0.1 to 1 µM | Cc1ccnc(Nc2cccc(-c3cnc([C@H](C)N(C)C(=O)OC(C)(C)C)s3)n2)c1 [Compound A-50] | –
24 | 0.1 to 1 µM | 0.1 to 1 µM | CCOC(=O)CNC(=O)NCc1ncc(-c2cccc(Nc3cc(C)ccn3)n2)s1 [Compound A-252] | –
25 | 0.1 to 1 µM | 0.1 to 1 µM | CC(=O)NCCCC[C@H](NC(C)=O)c1ncc(-c2cccc(Nc3cc(C)ccn3)n2)s1 [Compound A-64] | –
26 | – | – | CC(=O)c1csc(-c2cccc(Nc3cc(C)ccn3)n2)c1 [Compound B-68] | IC50 [1, 6]: > 1 µM; IC50 [2, 7]: 0.1 to 1 µM
27 | > 1 µM | 0.1 to 1 µM | CC(=O)O[C@@H](c1ccccc1)c1ncc(-c2cccc(Nc3cc(C)ccn3)n2)s1 [Compound A-318] | –
28 | 0.1 to 1 µM | < 0.1 µM | Cc1ccnc(Nc2cccc(-c3cnc([C@H]4CC[C@H](C(=O)NCCN(C)C)CC4)s3)n2)c1 [Compound A-309, N-(2-dimethylaminoethyl)-trans-4-{5-[6-(4-methylpyridin-2-ylamino)pyridin-2-yl]thiazol-2-yl}cyclohexanecarboxamide] | –
29 | > 1 µM | 0.1 to 1 µM | Cc1ccnc(Nc2cccc(-c3cnc([C@@H](N)Cc4ccccc4)s3)n2)c1 [Compound A-40] | –
30 | < 0.1 µM | < 0.1 µM | O=C1CC[C@@H](c2ncc(-c3cccc(Nc4cc(Cl)ccn4)n3)s2)N1 [Compound A-323, (S)-5-{5-[6-(4-chloropyridin-2-ylamino)pyridin-2-yl]thiazol-2-yl}pyrrolidin-2-one] | –
31 | – | – | OCCN(CCO)c1ncc(-c2cccc(Nc3cc(Cl)ccn3)n2)s1 [Compound A-545, 2-[N-{5-[6-(4-chloropyridin-2-ylamino)pyridin-2-yl]thiazol-2-yl}-N-(2-hydroxyethyl)amino]ethanol] | IC50 ([1]; Tables 1-x, compounds A): < 0.1 µM; IC50 [2, 5]: < 0.1 µM
32 | 0.1 to 1 µM | 0.1 to 1 µM | CCOC(=O)Cc1ccnc(Nc2cccc(-c3cnc([C@@H]4CCC(=O)N4)s3)n2)c1 [Compound A-332] | –
33 | 0.1 to 1 µM | < 0.1 µM | O=C1CC[C@@H](c2ncc(-c3cccc(Nc4cc(CCO)ccn4)n3)s2)N1 [Compound A-330, (S)-5-(5-{6-[4-(2-hydroxyethyl)pyridin-2-ylamino]pyridin-2-yl}thiazol-2-yl)pyrrolidin-2-one] | –
34 | > 1 µM | 0.1 to 1 µM | Cc1ccnc(Nc2cccc(-c3cnc(C(C)(C)CC(=O)O)s3)n2)c1 [Compound A-145] | –
35 | 0.1 to 1 µM | 0.1 to 1 µM | Cc1ccnc(Nc2cccc(-c3cnc(CN4CCN(C(=O)CO)CC4)s3)n2)c1 [Compound A-246] | –
36 | – | – | Cc1ccnc(Nc2cccc(-c3cnc(N(CC(N)=O)[C@H]4CC[C@H](C(=O)O)CC4)s3)n2)c1 [Compound A-600] | IC50 ([1]; Tables 1-x, compounds A): > 1 µM; IC50 [2, 5]: 0.1 to 1 µM
37 | > 1 µM | 0.1 to 1 µM | COC(=O)C(C)(C)NC(=O)c1ncc(-c2cccc(Nc3cc(C)ccn3)n2)s1 [Compound A-153] | –
38 | – | – | CC(=O)NCC1CCN(c2ncc(-c3cccc(Nc4cc(C)ccn4)n3)s2)CC1 [Compound A-487, N-(1-{5-[6-(4-methylpyridin-2-ylamino)pyridin-2-yl]thiazol-2-yl}piperidin-4-ylmethyl)acetamide] | IC50 ([1]; Tables 1-x, compounds A): 0.1 to 1 µM; IC50 [2, 5]: < 0.1 µM
39 | > 1 µM | > 1 µM | CCOC(=O)c1nc([C@H](C)NC(C)=O)sc1-c1cccc(Nc2cc(C)ccn2)n1 [Compound A-102] | –
40 | 0.1 to 1 µM | 0.1 to 1 µM | Cc1ccnc(Nc2cccc(-c3cnc(CNCC4(O)CCCCC4)s3)n2)c1 [Compound A-196] | –
41 | 0.1 to 1 µM | < 0.1 µM | Cc1ccnc(Nc2cccc(-c3cnc([C@H]4CC[C@H](C(=O)N5CCC(NS(C)(=O)=O)C5)CC4)s3)n2)c1 (stereo partly drawn) [Compound A-312, N-[1-(trans-4-{5-[6-(4-methylpyridin-2-ylamino)pyridin-2-yl]thiazol-2-yl]cyclohexanecarbonyl)pyrrolidin-3-yl}methanesulfonamide] | –
42 | – | – | Cc1ccnc(Nc2cccc(-c3cnc(N(C)CCc4ccc(C(=O)O)cc4)s3)n2)c1 [Compound A-593, 4-[2-(N-methyl-N-{5-[6-(4-methylpyridin-2-ylamino)pyridin-2-yl]thiazol-2-yl}amino)ethyl]benzoic acid dihydrochloride] | IC50 ([1]; Tables 1-x, compounds A): 0.1 to 1 µM; IC50 [2, 5]: < 0.1 µM
43 | 0.1 to 1 µM | 0.1 to 1 µM | Cc1ccnc(Nc2cccc(-c3cnc([C@H]4CC[C@H](C(=O)N(CCO)CCO)CC4)s3)n2)c1 [Compound A-302] | –
44 | – | – | Cc1ccnc(Nc2cccc(-c3cnc(N4CCN(S(C)(=O)=O)CC4)s3)n2)c1 [Compound A-412] | IC50 ([1]; Tables 1-x, compounds A): 0.1 to 1 µM; IC50 [2, 5]: 0.1 to 1 µM
